# Molecular target: T1, BKB1 receptors (Homo sapiens, UniProt P46663)
# T1 construct: Human (IMR-90) lung fibroblast cells expressing native BKB1 receptors; endogenous in cells; host or cells: IMR-90 human lung fibroblasts, treated with human IL-1 to up-regulate BKB1
# T1 sequence (P46663 1-353): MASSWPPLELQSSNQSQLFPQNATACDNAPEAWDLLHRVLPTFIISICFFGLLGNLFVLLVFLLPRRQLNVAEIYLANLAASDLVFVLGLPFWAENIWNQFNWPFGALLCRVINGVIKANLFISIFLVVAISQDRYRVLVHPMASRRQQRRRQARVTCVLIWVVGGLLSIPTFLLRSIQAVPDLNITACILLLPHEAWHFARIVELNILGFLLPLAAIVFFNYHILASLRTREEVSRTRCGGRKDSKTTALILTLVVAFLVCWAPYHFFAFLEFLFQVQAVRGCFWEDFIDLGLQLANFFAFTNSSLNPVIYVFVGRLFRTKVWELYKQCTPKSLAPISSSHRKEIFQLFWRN
# Test: Calcium Mobilization Assay (FLIPR), IMR-90 cells, BKB1
# Assay type: cell-based
# Details: IL-1 induced IMR-90 cells, agonist desArg10-kallidin (DAKD)
# Method: Calcium Mobilization Assay (FLIPR)—Human (IMR-90) lung fibroblast cells expressing native BKB1 receptors were harvested by trypsinization and seeded into black wall/clear bottom 96-well plates (Costar 3904; Corning Life Sciences, Acton, Mass.) at approximately 13,000 cells/well. After 1 day incubation, cells were treated with human IL-1 (0.35 ng/ml) in 10% FBS/MEM for 2 h to up-regulate BKB1 receptors. Induced cells were loaded with fluorescent calcium indicator by incubation with 2.3 µM Fluo-4/acetoxymethyl ester (Invitrogen) at 37° C. for 1.5 h in the presence of an anion transport inhibitor (2.5 mM probenecid in 1% FBS/MEM). Extracellular dye was removed by washing with assay buffer (2.5 mM probenecid, 0.1% BSA in 20 mM HEPES/HBSS without bicarbonate or phenol red, pH 7.5) and cell plates were kept in the dark until used. Test compounds were assayed at eight concentrations in triplicate.
row,IC50,Compound
1,0.12 µM,"N-(2-methoxybenzyl)-N-{(1S)-1-(4-methylphenyl)-2-oxo-2-[(2R)-(pyrrolidin-2-ylmethyl)amino]ethyl}-2-(1H-1,2,3-triazol-1-yl)acetate [55 (S,R)]"
2,0.358 µM,"COc1ccccc1CN(C(=O)c1ccco1)[C@@H](C(=O)NC[C@H]1CCCO1)c1ccc(C)cc1 [Compound 4 (R,R), N-(2-methoxybenzyl)-N-[(1R)-1-(4-methylphenyl)-2-oxo-2-{[(2R)tetrahydrofuran-2-ylmethyl]amino}ethyl]furan-2-carboxamide]"
3,14.2 µM,"CCC(CC)CN(C(=O)C1CCCCC1)C(C(=O)NCC1CCCO1)c1ccc(C)cc1 (centres unmarked) [50 (mix), N-(2-ethylbutyl)-N-{1-(4-methylphenyl)-2-oxo-2-[(tetrahydrofuran-2-ylmethyl)amino]ethyl}cyclohexanecarboxamide]"
4,0.011 µM,"COc1ccccc1CN(C(=O)Cn1ccnn1)[C@@H](C(=O)NC[C@H]1CCCO1)c1ccc(C)cc1 [Compound 30 (R,R), N-(2-methoxybenzyl)-N-{(1R)-1-(4-methylphenyl)-2-oxo-2-[(2R)-(tetrahydrofuran-2-ylmethyl)amino]ethyl}-2-(1H-1,2,3-triazol-1-yl)acetamide]"
5,13 µM,"Cc1ccc(C(C(=O)NCC2CCCO2)N(CC2CCCC2)C(=O)CC2CCCC2)cc1 (centres unmarked) [51 (mix), 2-cyclopentyl-N-cyclopentylmethyl-N-{1-(4-methylphenyl)-2-oxo-2-[(tetrahydrofuran-2-ylmethyl)amino]ethyl}acetamide]"

# Second part, the compound before the results:
row,Compound,IC50
1,"COc1ccccc1CN(C(=O)c1ccc(C)cc1)C(C(=O)NCC1CCCO1)c1ccc(C)cc1 (centres unmarked) [20 (mix), 4-methyl-N-(2-methoxybenzyl)-N-{1-(4-methylphenyl)-2-oxo-2-[(tetrahydrofuran-2-ylmethyl)amino]ethyl}benzamide]",6.1 µM
2,"COc1ccccc1CN(C(=O)C1CCC1)C(C(=O)NCC1CCCO1)c1ccc(C)cc1 (centres unmarked) [25 (mix), N-(2-methoxybenzyl)-N-{1-(4-methylphenyl)-2-oxo-2-[(tetrahydrofuran-2-ylmethyl)amino]ethyl}cyclobutanecarboxamide]",15.7 µM
3,"Cc1ccc(C(C(=O)NCC2CCCO2)N(CC2CCCCC2)C(=O)Cc2ccccc2C)cc1 (centres unmarked) [33 (mix), N-(cyclohexylmethyl)-2-(2-methylphenyl)-N-{1-(4-methylphenyl)-2-oxo-2-[(tetrahydrofuran-2-ylmethyl)amino]ethyl}acetamide]",1.7 µM
4,"COc1ccccc1CN(C(=O)CCC(C)=O)C(C(=O)NCC1CCCO1)c1ccc(C)cc1 (centres unmarked) [17 (mix), 4-oxo-N-(2-methoxybenzyl)-N-{1-(4-methylphenyl)-2-oxo-2-[(tetrahydrofuran-2-ylmethyl)amino]ethyl}pentanamide]",1.2 µM
5,"COc1ccccc1CN(C(=O)c1ccc(F)cc1)C(C(=O)NCC1CCCO1)c1ccc(C)cc1 (centres unmarked) [22 (mix), 4-fluoro-N-(2-methoxybenzyl)-N-{1-(4-methylphenyl)-2-oxo-2-[(tetrahydrofuran-2-ylmethyl)amino]ethyl}benzamide]",8.7 µM
6,COc1ccccc1CN(C(=O)Cc1ccc(F)cc1)C(C(=O)NCC1CCCO1)c1ccc(C)cc1 (centres unmarked) [21 (mix)],3.5 µM
7,"CCC(CC)CN(C(=O)Cc1ccccc1C)C(C(=O)NCC1CCCO1)c1ccc(C)cc1 (centres unmarked) [41 (mix), N-(2-ethylbutyl)-2-(2-methylphenyl)-N-{1-(4-methylphenyl)-2-oxo-2-[(tetrahydrofuran-2-ylmethyl)amino]ethyl}acetamide]",4.3 µM
8,"CCCCC(=O)N(Cc1ccccc1OC)C(C(=O)NCC1CCCO1)c1ccc(C)cc1 (centres unmarked) [14 (mix), N-(2-methoxybenzyl)-N-{1-(4-methylphenyl)-2-oxo-2-[(tetrahydrofuran-2-ylmethyl)amino]ethyl}pentanamide]",0.3 µM
9,"COc1ccccc1CN(C(=O)C1CCC(F)(F)CC1)C(C(=O)NCC1CCCO1)c1ccc(C)cc1 (centres unmarked) [23 (mix), 4,4-difluoro-N-(2-methoxybenzyl)-N-{1-(4-methylphenyl)-2-oxo-2-[(tetrahydrofuran-2-ylmethyl)amino]ethyl}cyclohexanecarboxamide]",8.4 µM
